Results reported in US5430036A, “6,11-substituted-6,11-dihydrobenzo[b]quinolizinium salts and compositions and method of use thereof” (Sterling Winthrop Inc., priority 1994, dated 1995).

Tests used:
PCP recognition sites [1] = test: [3H]TCP radioreceptor assay (internal screen), binding to PCP recognition sites in rat whole brain membranes; set-up: species or system rat (male Sprague-Dawley); conditions: 25 min, room temperature; for Ki: approx. 1 nM [3H]TCP, mean of at least two separate determinations
Procedure: [^3 H]TCP binding to PCP recognition sites was performed as described by Vignon et al. Brain Research 1983, 280, 194-197. Male Sprague-Dawley rats were sacrificed by decapitation, and whole brains were homogenized in 10 volumes (wt/vol) of cold Tris-HCl buffer (50 mM, pH 7.7) using a Brinkmann Polytron (setting 6, 30 sec). The homogenate was centrifuged at 40,000×g for 10 min at 4° C. The supernatant was decanted, and the homogenization and centrifugation steps were repeated twice as described above. Following this, the pellet was resuspended in Tris-HCl (5 mM, pH 7.7) at a tissue concentration of 0.5-0.75 g/ml, and one ml aliquots were frozen at -70° C. until use. The binding characteristics for PCP recognition sites were not altered by the freezing of membrane suspensions.
On the day of the assay, membrane aliquots were thawed, resuspended in fresh 5 mM Tris-HCl buffer at a tissue concentration of 1 mg/ml, and stored on ice until use. Each assay tube contained 100 μl of [^3 H]TCP at a final concentration of approximately 1 nM, 100 μl of various concentrations of the compounds of interest, 500 μl of the tissue suspension and 300 μl of buffer to a final assay volume of 1 ml and a final protein concentration of 0.5 mg/tube. Non-specific binding was defined by addition of a final concentration of 100 μM PCP to blank tubes. All tubes were incubated at room temperature for 25 min before termination of the reaction by rapid filtration over Whatman GF/B glass fiber filters that had been presoaked in a solution of 0.5% polyethylenimine for at least 1 hr prior to use. Filters were washed with three 4 ml volumes of cold Tris buffer. Following addition of scintillation cocktail, the amount of bound radioactivity was determined by liquid scintillation spectrometry using a Beckman LS 5000TA liquid scintillation counter with an efficiency for tritium of approximately 55%. Inhibition constants (Ki values) were calculated using the EBDA/LIGAND program (McPherson, J. Pharmacol. Meth. 1985, 14, 213-228), purchased from Elsevier/Biosoft, Inc. Results are reported as Ki values which are expressed as the mean of at least two separate determinations; or as a percent (%) inhibition of binding at 10 μM.

PCP recognition sites [2] = test: [3H]TCP radioreceptor assay (external screen), binding to PCP recognition sites in whole rat forebrain membranes; conditions: 25° C., 60 min
Procedure: A procedure similar to that described above, for the [^3 H]TCP radioreceptor assay (internal screen) was utilized except that the whole rat forebrain membranes were incubated at 25° C. for 60 minutes rather than at room temperature for 25 minutes, before termination of the reaction. The results are reported as a percent (%) inhibition of binding at 10 μM.

[3] = tested on: NMDA-induced neurotoxicity in cultured cortical neurons; test: Antagonism of NMDA-induced neurotoxicity in cultured cortical neurons (LDH release); type: cell-based, mouse (Swiss-Webster); conditions: Mus musculus, Cortical neurone; 500 μM NMDA, 30 min exposure; LDH activity 24 h after removal of NMDA; day 13 cultured cortical neurons
Procedure: Pregnant, Swiss-Webster mice were obtained from Taconic Farms (Germantown, N.Y.) and sacrificed 16 days post conception. Fetuses were removed and placed in a sterile dish containing Hank's balanced salt solution (HBSS), pH 7.4. Brain cortices were dissected, meninges were removed, the tissue was minced and placed into a solution of HBSS containing 0.25% (w/v) trypsin at 37° C. for 15 minutes. Tissue was then triturated with a sterile pasteur pipet, diluted with minimal essential media (Gibco 330-1430), pH 7.4, supplemented with 10% horse serum, 10% fetal calf serum, 2 mM 1-glutamine, 21 mM d-glucose, 2.2 g/L sodium bicarbonate, 1000 U/ml penicillin, and 1,000 μg/ml streptomycin. Cells were plated onto Falcon primaria 96 well plates at a final density of 50,000 cells/well and incubated at 37° C. in the presence of 5% (v/v) carbon dioxide. After 5 days, plating media was replaced with maintenance media containing minimal essential media (Gibco 330-1430), pH 7.4, supplemented with 10% horse serum, 10% 1-glutamine, 21 mM d-glucose, 2.2 g/l sodium bicarbonate,1,000 U/ml penicillin, 1,000 μg/ml streptomycin, and 10 μM cytosine arabinoside. On days 7 and 10, media was replaced with maintenance media as above lacking the cytosine arabinoside. Experiments were conducted on day 13. […]

Compound	Ki (PCP recognition sites [1]) [nM]	[3H]TCP (external screen) Percent Inhibition (%) @10 μM (PCP recognition sites [2]) [%]	other results
Brc1ccc2c(c1)C1c3cccc[n+]3C2C2CC=CC12 (centres unmarked) [4(c), 9-bromo-6,11[3',4']cyclopentenyl-6,11-dihydrobenzo[b]quinolizinium bromide]	1630		
Fc1ccc2c(c1)C1c3cccc[n+]3C2C2CC=CC12 (centres unmarked) [5(c), 9-fluoro-6,11[3',4']cyclopentenyl-6,11-dihydrobenzo-[b]quinolizinium perchlorate]	806		
CC12c3ccccc3C(c3cccc[n+]31)C1C=CCC12 (centres unmarked) [12(c), 6-methyl-6,11[3',4']cyclopentenyl-6,11-dihydrobenzo[b]quinolizinium perchlorate, .1/2 H2 O]	93.4		
CC(C)=C1C=CC2C3c4ccccc4C(C12)[n+]1ccccc13 (centres unmarked) [14(b), 6,11-[5'-isopropylidene-[3',4']cyclopentenyl]-6,11-dihydrobenzo[b]quinolizinium perchlorate]	367		
C1=CC2C3c4ccccc4C(C2C1)[n+]1ccccc13 (centres unmarked) [15(a), 6,11-[3',4']cyclopentenyl-6,11-dihydrobenzo[b]quinolizinium bromide]	464	92	
O=[N+]([O-])c1cccc2c1C1c3ccccc3C2c2cccc[n+]21 (centres unmarked) [15(b), 7-Nitro-6,11-benzeno-6,11-dihydrobenzo[b]quinolizinium perchlorate]		9	[3H]TCP (internal screen) Percent Inhibition @10 μM (PCP recognition sites [1]): 37%
CC(C)(C)c1ccc(O)c2c1C1c3ccccc3C2[n+]2ccccc21 (centres unmarked) [15(c), 7-Hydroxy-10-tert-butyl-6,11-benzeno-6,11-dihydrobenzo[b]quinolizinium perchlorate]		24	[3H]TCP (internal screen) Percent Inhibition @10 μM (PCP recognition sites [1]): 10%
Cc1cccc2c1C1c3ccccc3C2c2cccc[n+]21 (centres unmarked) [15(d), 7-Methyl-6,11-benzeno-6,11-dihydrobenzo[b]quinolizinium perchlorate]		11	[3H]TCP (internal screen) Percent Inhibition @10 μM (PCP recognition sites [1]): 52%
C1=CC2C3c4ccccc4C(C2CC1)[n+]1ccccc13 (centres unmarked) [Example 1, 6,11[3',4']-cyclohexenyl-6,11-dihydrobenzo[b]quinolizinium bromide]	245		
c1ccc2c(c1)C1c3cccc[n+]3C2C2CCOC12 (centres unmarked) [Example 8, 6,11[2',3']tetrahydrofuranyl-6,11-dihydrobenzo[b]-quinolizinium bromide]	8490		
c1ccc2c(c1)C1c3cccc[n+]3C2C2CCCC12 (centres unmarked) [Example 13(a), 6,11[1',2']cyclopentyl-6,11-dihydrobenzo[b]quinolizinium perchlorate.1/2 hydrate]			Ki (PCP recognition sites [1]; hydrate): 1560 nM
c1ccc2c(c1)C1c3cccc[n+]3C2C2CCCC12 (centres unmarked) [Example 13(b), 6,11[1',2']cyclopentyl-6,11-dihydrobenzo[b]quinolizinium perchlorate.1/2 hydrate]			Ki (PCP recognition sites [1]; hydrate): 366 nM; IC50 [3]: 8400 nM
